Values of other authors as cited in patent US20040175402A1, “Formulation” (priority 2001, published 2004).

Assays:
[1] = system: human breast cancer cells; settings: human breast cancer cells in vitro

C[C@]12CC[C@@H]3c4ccc(O)cc4C[C@@H](CCCCCCCCC[S+]([O-])CCCC(F)(F)C(F)(F)F)[C@H]3[C@@H]1CC[C@@H]2O (stereo partly drawn) [Fulvestrant, 7α-[9-(4,4,5,5,5-Pentafluoropentylsulphinyl)nonyl]oestra-1,3-5(10)-triene-3,17β-diol]
block of uterotrophic action of oestradiol (monkeys): blocks completely the uterotrophic action of oestradiol
block of uterotrophic action of oestradiol (rats): blocks completely the uterotrophic action of oestradiol
block of uterotrophic action of oestradiol (mice): blocks completely the uterotrophic action of oestradiol
block of growth stimulatory action of oestradiol [1]: completely blocks the growth stimulatory action of oestradiol
